Here are results for six compounds from ChEMBL document CHEMBL1150349, “Design and synthesis of hydroxy-alkynoic acids and their methyl esters as novel activators of BK channels” (Bioorg Med Chem Lett, 2008).

SMILES strings stand for the structures. Calls of active or inactive are those of the source. The calls are words filed in the database; no cut-off is given here.

The assay concerns the target Calcium-activated potassium channel subunit alpha-1 (Rattus norvegicus) (UniProt Q62976). In words: Activation of BK channel in rat cerebral myocytes by voltage patch clamp method. The assay is classed as cell-based.

Calcium-activated potassium channel subunit alpha-1 (Rattus norvegicus), sequence (Q62976 whole entry): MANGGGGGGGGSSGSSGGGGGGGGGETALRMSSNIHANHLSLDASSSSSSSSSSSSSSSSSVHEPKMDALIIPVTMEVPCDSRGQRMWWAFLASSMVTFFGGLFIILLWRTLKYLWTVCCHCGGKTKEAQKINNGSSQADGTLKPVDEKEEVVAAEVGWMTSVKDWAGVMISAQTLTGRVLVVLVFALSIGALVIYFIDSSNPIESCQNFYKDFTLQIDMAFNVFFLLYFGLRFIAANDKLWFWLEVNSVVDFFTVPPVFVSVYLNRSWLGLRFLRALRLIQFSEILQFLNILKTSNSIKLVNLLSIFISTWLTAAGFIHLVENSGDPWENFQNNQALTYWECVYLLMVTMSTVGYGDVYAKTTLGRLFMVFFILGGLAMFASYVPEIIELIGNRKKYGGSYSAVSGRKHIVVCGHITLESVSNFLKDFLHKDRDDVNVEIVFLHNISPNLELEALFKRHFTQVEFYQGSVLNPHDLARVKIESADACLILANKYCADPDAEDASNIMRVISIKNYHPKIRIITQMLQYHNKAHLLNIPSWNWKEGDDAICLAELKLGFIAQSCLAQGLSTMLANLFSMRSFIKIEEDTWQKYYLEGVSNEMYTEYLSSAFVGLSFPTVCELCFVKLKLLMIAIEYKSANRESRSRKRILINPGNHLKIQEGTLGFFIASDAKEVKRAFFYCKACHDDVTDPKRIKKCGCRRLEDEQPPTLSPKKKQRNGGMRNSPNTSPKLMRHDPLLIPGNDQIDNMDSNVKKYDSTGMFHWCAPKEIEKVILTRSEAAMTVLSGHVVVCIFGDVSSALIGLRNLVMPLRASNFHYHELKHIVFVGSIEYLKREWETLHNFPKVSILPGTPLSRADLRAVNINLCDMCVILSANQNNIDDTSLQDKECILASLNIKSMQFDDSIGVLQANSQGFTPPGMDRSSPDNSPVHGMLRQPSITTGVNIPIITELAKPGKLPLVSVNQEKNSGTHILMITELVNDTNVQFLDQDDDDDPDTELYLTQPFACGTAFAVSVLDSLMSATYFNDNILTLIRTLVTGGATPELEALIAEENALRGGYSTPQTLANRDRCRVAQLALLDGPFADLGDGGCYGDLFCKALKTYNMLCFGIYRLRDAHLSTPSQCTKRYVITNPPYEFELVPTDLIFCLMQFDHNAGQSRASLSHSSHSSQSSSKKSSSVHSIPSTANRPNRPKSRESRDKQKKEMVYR

Turning to `O=C(O)CCCCCC#CCCCCO`, the outcome was Active.
The same measure for `O=C(O)CCCCCC#CCCCO`: “Active”.
`COC(=O)CCCCCCCC#CCCCCO`: the result was inactive.
`COC(=O)CCCCC#CCCCO`: the result was Active.
Consider `COC(=O)CCCCCCCCCC#CCCCCO`, for which the result was inactive.
The same measure for `COC(=O)CCCC#CCCO`: “inactive”.
